Measured values taken from publication PMC4549706, “Rational Design of Highly Potent and Slow-Binding Cytochrome bc1 Inhibitor as Fungicide by Computational Substitution Optimization” (Scientific Reports, 2015).
Where two headings read alike, the source gives them in different places.

Tests used:
[1] = target: T1, porcine succinate-cytochrome c reductase (SCR, the mixture of complex II and bc1) (Sus scrofa, UniProt P24964); test: SCR activity, succinate-cytochrome c system (Assay 1); type: biochemical; conditions: for ∆∆Gexp: Table S1, experimental binding free energy change vs compound 1; for ΔΔGexp: experimental binding free energy change relative to compound 1
T1 construct: T h e S C R f r o m p o r c i n e h e a r t; from tissue; host or cells: porcine heart
T1 sequence (P24964 whole entry, one chain of several): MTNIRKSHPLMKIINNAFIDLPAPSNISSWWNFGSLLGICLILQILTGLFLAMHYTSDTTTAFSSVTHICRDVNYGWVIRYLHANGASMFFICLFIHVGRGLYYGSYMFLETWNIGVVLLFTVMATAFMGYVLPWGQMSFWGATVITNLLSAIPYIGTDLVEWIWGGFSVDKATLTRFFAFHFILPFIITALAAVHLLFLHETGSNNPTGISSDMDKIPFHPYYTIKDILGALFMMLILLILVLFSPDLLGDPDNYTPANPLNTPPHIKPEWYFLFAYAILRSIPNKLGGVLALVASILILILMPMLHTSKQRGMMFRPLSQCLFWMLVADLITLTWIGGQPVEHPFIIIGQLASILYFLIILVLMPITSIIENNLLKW
Protocol: (§1) Figure 4 Slow-binding inhibition mechanism. (A,B) Effect of various concentrations of cytochrome c and compound 18 on the inhibition of SCR activity. Each reaction mixture contains 100 mM, pH 7.4), EDTA (0.3 mM), succinate (20 mM), SCR (0.1 nM), and indicated amounts of cytochrome c and compound 18. The assays were performed in the presence of (A) 18 (35 nM) and a specified amount of cytochrome c (1, 4 μM; 2, 8 μM; 3, 20 μM; and 4, 48 μM) or (B) cytochrome c (60 μM) and various concentrations of compound 18 (1, 0 nM; 2, 15 nM; 3, 20 nM; 4, 30 nM; 5, 40 nM; and 6, 50 nM). Experimental data are shown as coloured dots and theoretical values are represented as black solid lines. Insets: plots of Kobs against concentration of (A) cytochrome c and (B) compound 18. […] Each reaction mixture contains 100 mM, pH 6.5), EDTA (2 mM), lauryl maltoside (750 μM), oxidised cytochrome c (100 μM), SCR (0.05 nM), and indicated amounts of DBH2 and compound 18. Two representative sets of inhibitory assays were performed in the presence of (C) DBH2 (20 μM) and a specified amount of compound 18 (1, 20 nM; 2, 40 nM; 3, 60 nM; 4, 80 nM), or (D) DBH2 (120 μM) and a specified amount of compound 18 (1, 40 nM; 2, 80 nM; 3, 120 nM; 4, 180 nM). Insets: plots of Kobs against concentration of compound 18. (E) Plot of the apparent rate constant A against concentration of DBH2. Inset: Plot of 1/A against concentration of DBH2. (F) Plot of the apparent rate constant B against concentration of DBH2.
(§2) The porcine succinate-cytochrome c reductase (SCR, the mixture of complex II and bc1) was prepared essentially according to the previously reported method. The enzymatic activities of SCR, complex II, and bc1 complex were analyzed in respective reaction mixtures as reported previously. Kinetic analyses for the inhibition mechanism were performed as previously described. […]
(§3) inhibitory kinetics study of bc1 inhibitors 8. […]
(§4) synthesized compounds against bc1 complex were examined by SCR. As previously described 9, the combined activity of SCR can be determined by using succinate and cytochrome c as substrates (Assay 1). We also measured the activity of complex II by using succinate and 2,6-dichloroindophenol (DCIP) as substrates (Assay 2), or the activity of bc1 complex by using decylubiquinol (DBH2) and cytochrome c as substrates (Assay 3). […]
redA 10, was used to represent the enzyme concentration. The three redox reactions used in this study were summarized as follows.
Assay 1: succinate + cytochrome c3+ S C R fumarate + cytochrome c2+
Assay 2: succinate + DCIP complex II fumarate + DCIPH 2
Assay 3: DBH 2 + cytochrome c3+ bc1 complex DB + cytochrome c2+
All assays were performed at 23 °C. The enzymatic activity of SCR (Assay 1) was carried out in 1.8 mL of reaction mixture containing 100 mM PBS (pH 7.4), 0.3 mM EDTA, and indicated concentrations of succinate and oxidized cytochrome c (Sigma-Aldrich). The activity of succinate-ubiquinone reductase (complex II, Assay 2) was determined in essentially the same reaction mixture, except for the replacement of cytochrome c with DCIP (Alfa Aesar). […] DBH 2 was prepared through reduction of decylubiquinone by dithionite (Sigma-Aldrich) as previously described 11,12. The nonionic detergent LM was used to decrease the interfering non-enzymatic activity though it slightly […]

[2] = system: Sphaerotheca fuliginea (Schlecht.) Poll.; test: In vivo fungus growth inhibitory rate at 200 mg/L, powdery mildew
Excerpt: Based on the above in vitro study, compounds with nanomolar and subnanomolar Ki values were selected from the total 21 newly synthezised compounds for further studies. Pesticide likeness, defined as a complex balance of various physicochemical properties and structure features, can evaluate whether a molecule is similar to the known pesticides. After the filtration of pesticide likeness, seven compounds were kept to adhere to our previously defined rules for pesticide-likeness including molecular weight (MW) ≤ 435 Da, ClogP ≤ 6, number of H-bond acceptors (HBA) ≤ 6, number of H-bond donors (HBD) ≤ 2, number of rotatable bonds (ROB) ≤ 9, and number of aromatic bonds (ARB) ≤ 17 (Table 1)[24]. […] Therefore, compound 18 was recognized as lead compound for subsequent studies.
(§5) [a] Compounds are named as “series number-site number plus substitution group number” a: -F, b: -Cl, c:
(§6) -Br, d: -NO2, e: -CH3, f: -CF3, g: -OCH3, h: -OH, i: -NH2, j: -COOH.
(§7) [b] Substitution number and group.
(§8) [c] CH is “series 1” and N is “series 2”. […]
(§9) Table S2 Fungus growth inhibitory rate of target compounds (200 mg/L).
(§10) Comp. No. R X Sphaerotheca fuliginea Pseudoperonospora cubensis

[3] = system: Pseudoperonospora cubensis (Berk. et Curt.); test: In vivo fungus growth inhibitory rate at 200 mg/L, downy mildew
Protocol: as §5, §6, §7, §8, §9, §10

bc1 complex = target: T2, bc1 complex (Sus scrofa, UniProt P24964); test: bc1 complex activity, DBH2-cytochrome c system (Assay 3); type: biochemical, porcine
T2 construct: T h e S C R f r o m p o r c i n e h e a r t; from tissue; host or cells: porcine heart
T2 sequence (P24964 whole entry, one chain of several): as above
Protocol: Figure 3 Inhibitory kinetics of bc1 complex. (A) Chemical structures of AZ (azoxystrobin) and its analogues, compound 1 and compound 18. These compounds have a common pharmacophore structure: methoxyacrylate (MOA). […] Each reaction mixture contains phosphate buffered saline (PBS; 100 mM, pH 6.5), ethylenediaminetetraacetic acid (EDTA; 2 mM), lauryl maltoside (750 μM), oxidised cytochrome c (100 μM), SCR (0.05 nM), DBH2 (20–120 μM) and a specified amount of AZ (1, 0 nM; 2, 500 nM; 3, 1000 nM; 4, 2000 nM; 5, 3000 nM; and 6, 5000 nM). (C) Compound 1 is non-competitive with respect to cytochrome c. The reaction mixture contains 100 mM, pH 7.4), EDTA (0.3 mM), succinate (20 mM), SCR (0.1 nM), cytochrome c (1.13–15.6 μM), and a series of concentrations of compound 1 (1, 0 nM; 2, 10 nM; 3, 20 nM; 4, 40 nM; and 5, 60 nM). (D) Compound 1 is competitive with respect to DBH2. Each reaction mixture contains 100 mM, pH 6.5), EDTA (2 mM), lauryl maltoside (750 μM), oxidised cytochrome c (100 μM), SCR (0.05 nM), DBH2 (20–120 μM) and a specified amount of compound 1 (1, 0 nM; 2, 50 nM; 3, 100 nM; 4, 200 nM; 5, 300 nM; and 6, 500 nM).
as §1, §2, §3, §4
redA 10, was used to represent the enzyme concentration. The three redox reactions used in this study were summarized as follows. […]

[4] = Table S1, inhibition constant with bc1 complex, read-out: Ki

Row | Compound | ∆∆Gexp [1] [kcal/mol] | Ki [1, 4] [nM] | Ki [1] [nM] | ΔΔGexp [1] [kcal/mol] | also measured
1 | CO/N=C(/C(=O)OC)c1ccccc1CSc1nc2cc(F)ccc2s1 [Compound 52] | -0.28 | 19.3 ± 1.32 |  |  | 
2 | CO/C=C(/C(=O)OC)c1ccccc1CSc1nc2c(F)cccc2s1 [Compound 2] | 0.09 | 35.9 ± 1.24 |  |  | 
3 | CO/N=C(/C(=O)OC)c1ccccc1CSc1nc2ccc([N+](=O)[O-])cc2s1 [Compound 65] | -0.08 | 27.3 ± 1.27 |  |  | 
4 | CO/N=C(/C(=O)OC)c1ccccc1CSc1nc2cc(Cl)ccc2s1 [Compound 53] | -1.42 |  | 2.84 ± 0.03 | -1.42 | 
5 | CO/C=C(/C(=O)OC)c1ccccc1CSc1nc2ccc(Br)cc2s1 [Compound 24] | -1.96 |  | 1.15 ± 0.4 | -1.96 | 
6 | CO/N=C(/C(=O)OC)c1ccccc1CSc1nc2ccc(C)cc2s1 [Compound 66] | -0.57 | 11.9 ± 1.08 |  |  | 
7 | CO/N=C(/C(=O)OC)c1ccccc1CSc1nc2c(F)cccc2s1 [Compound 42] | 0.97 | 160 ± 1.1 |  |  | 
8 | CO/N=C(/C(=O)OC)c1ccccc1CSc1nc2cc([N+](=O)[O-])ccc2s1 [Compound 55] | -2.00 |  | 1.07 ± 0.12 | -2.00 | 
9 | CO/N=C(/C(=O)OC)c1ccccc1CSc1nc2ccc(Cl)cc2s1 [Compound 63] | -0.71 | 9.37 ± 1.24 |  |  | 
10 | CO/N=C(/C(=O)OC)c1ccccc1CSc1nc2c(Cl)cccc2s1 [Compound 43] | 0.77 | 114 ± 2.25 |  |  | 
11 | CO/C=C(/C(=O)OC)c1ccccc1CSc1nc2cc(Cl)ccc2s1 [Compound 13] | -2.26 |  | 0.69 ± 0.06 | -2.26 | 
12 | CO/C=C(/C(=O)OC)c1ccccc1CSc1nc2cc([N+](=O)[O-])ccc2s1 [Compound 15] | -2.60 |  | 0.39 ± 0.02 | -2.60 | 
13 | CO/C=C(/C(=O)OC)c1ccccc1CSc1nc2ccc(C)cc2s1 [Compound 26] | -1.96 |  | 1.15 ± 0.05 | -1.96 | Fungus growth inhibitory rate, Sphaerotheca fuliginea [2]: 81%; Fungus growth inhibitory rate, Pseudoperonospora cubensis [3]: 97%
14 | CO/N=C(/C(=O)OC)c1ccccc1CSc1nc2ccc(Br)cc2s1 [Compound 64] | -1.31 |  | 3.44 ± 0.03 | -1.31 | 
15 | CO/C=C(/C(=O)OC)c1ccccc1CSc1nc2ccccc2s1 [Compound 1, E-Methyl 2-(2-((benzo-thiazol-2-ylthio)methyl)phenyl)-3-methoxyacrylate] | 0.00 |  | 31.1 ± 0.9 | 0.00 | inhibition type with respect to cytochrome c ([1]; Assay 1, varied cytochrome c): non-competitive; Ki (bc1 complex): 96.5 ± 5.6 nM; inhibition type with respect to DBH2 (bc1 complex; Assay 3, varied DBH2): competitive; Ki in DBH2-cytochrome c system relative to Ki in succinate-cytochrome c system (bc1 complex; Assay 3 vs Assay 1): approximately 3 fold; melting point: 84 to 86 °C
16 | CO/C=C(/C(=O)OC)c1ccccc1CSc1nc2ccc(Cl)cc2s1 [Compound 23] | -1.44 |  | 2.75 ± 0.01 | -1.44 | 
17 | CO/C=C(/C(=O)OC)c1ccccc1CSc1nc2ccc(F)cc2s1 [Compound 22] | -1.22 |  | 3.97 ± 0.27 | -1.22 | 
18 | CO/C=C(/C(=O)OC)c1ccccc1CSc1nc2c(Cl)cccc2s1 [Compound 3] | 0.47 | 68.5 ± 1.21 |  |  | 
19 | CO/N=C(/C(=O)OC)c1ccccc1CSc1nc2ccc(F)cc2s1 [Compound 62] | 0.55 | 78.3 ± 1.37 |  |  | 
20 | CO/C=C(/C(=O)OC)c1ccccc1CSc1nc2ccc(C(F)(F)F)cc2s1 [Compound 27] | -2.16 |  | 0.81 ± 0.03 | -2.16 | 
21 | CO/C=C(/C(=O)OC)c1ccccc1CSc1nc2cc(F)ccc2s1 [Compound 12] | -1.58 |  | 2.15 ± 0.23 | -1.58 | Fungus growth inhibitory rate, Sphaerotheca fuliginea [2]: 99%; Fungus growth inhibitory rate, Pseudoperonospora cubensis [3]: 90%
